Experimental data reported in patent US8017602B2, “N-(2-(2-(5-hydroxy-3-oxo-3,4-dihydro-2H-benzo[b][1,4]oxazin-8-yl)ethylamino)ethyl)-3-(phenethoxy)propanamide derivatives, processes for their preparation, pharmaceutical compositions containing them and their use in therapy” (AstraZeneca AB, priority 2008, dated 2011).
Structures can show the parent of a compound that is named as a salt.

What was measured:
Adrenergic β2 = target: T1, Adrenergic β2 (Homo sapiens, UniProt P07550); experiment: Adrenergic β2 mediated cAMP production in H292 cells (AlphaScreen cAMP detection); assay type: cell-based; conditions: for β2 Int Act: Intrinsic Activity, fraction relative to the maximum activity determined for formoterol; for EC50: cAMP production, 60 min at room temperature, 300 μM rolipram, read-out: β2 pEC50 (converted)
T1 construct: Adherent H292 cells were removed from tissue culture flasks; endogenous in cells; host or cells: H292 cells
Method in brief: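 H292 cells, pretreated 10 min with rolipram (300 μM final), were exposed to agonist for 60 min at room temperature in HBSS/10 mM HEPES pH 7.4 with 1.6% DMSO. Lysate cAMP was read by AlphaScreen against a standard curve; four-parameter fits gave pEC50 and intrinsic activity as a fraction of the formoterol maximum.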

[1] = target: T2, recombinant human adrenergic beta 1 receptors (Homo sapiens, UniProt P08588); experiment: Adrenergic β1 selectivity binding assay ([125I]-Iodocyanopindolol); conditions: inhibition of [125I]-Iodocyanopindolol binding, human β1 membranes; read-out: β1 bind p IC50 (converted)
T2 construct: purchased Euroscreen
Method in brief: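 Membranes with recombinant human β1 receptors in HEPES/EDTA/NaCl/gelatin buffer, pH 7.4, competed against [125I]-iodocyanopindolol (0.036 nM final), 2 h at room temperature; 10 μM propranolol defined non-specific binding. Filter-bound radioactivity counted; pIC50 from four-parameter logistic fit.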

[2] = target: T3, recombinant human Dopamine Subtype D2s receptors (Homo sapiens, UniProt P14416); experiment: Dopamine D2 selectivity binding assay ([3H]-spiperone); conditions: inhibition of [3H]-spiperone binding, human D2s membranes; read-out: D2 bind pIC50 (converted)
T3 construct: purchased Perkin Elmer
Method in brief: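 Competition against 0.16 nM [3H]-spiperone on membranes with recombinant human D2s receptors in HEPES buffer pH 7.4 with NaCl and gelatin, 2 h at room temperature. Filtration and scintillation counting, non-specific binding from 10 μM haloperidol. pIC50 derived from a four-parameter logistic fit.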

T3 sequence (P14416 1-414 isoform P14416-2): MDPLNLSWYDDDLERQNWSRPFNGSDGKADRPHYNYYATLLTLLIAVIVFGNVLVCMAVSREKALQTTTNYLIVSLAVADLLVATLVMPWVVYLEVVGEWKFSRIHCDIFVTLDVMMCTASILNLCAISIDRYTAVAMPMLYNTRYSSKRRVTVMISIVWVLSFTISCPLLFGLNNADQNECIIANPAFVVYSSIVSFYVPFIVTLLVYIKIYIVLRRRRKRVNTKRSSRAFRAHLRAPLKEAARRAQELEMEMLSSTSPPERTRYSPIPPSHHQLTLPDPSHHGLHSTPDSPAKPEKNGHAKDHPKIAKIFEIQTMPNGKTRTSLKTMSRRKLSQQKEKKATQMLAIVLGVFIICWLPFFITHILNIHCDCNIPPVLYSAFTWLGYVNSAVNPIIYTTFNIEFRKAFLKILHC
T1 sequence (P07550 whole entry): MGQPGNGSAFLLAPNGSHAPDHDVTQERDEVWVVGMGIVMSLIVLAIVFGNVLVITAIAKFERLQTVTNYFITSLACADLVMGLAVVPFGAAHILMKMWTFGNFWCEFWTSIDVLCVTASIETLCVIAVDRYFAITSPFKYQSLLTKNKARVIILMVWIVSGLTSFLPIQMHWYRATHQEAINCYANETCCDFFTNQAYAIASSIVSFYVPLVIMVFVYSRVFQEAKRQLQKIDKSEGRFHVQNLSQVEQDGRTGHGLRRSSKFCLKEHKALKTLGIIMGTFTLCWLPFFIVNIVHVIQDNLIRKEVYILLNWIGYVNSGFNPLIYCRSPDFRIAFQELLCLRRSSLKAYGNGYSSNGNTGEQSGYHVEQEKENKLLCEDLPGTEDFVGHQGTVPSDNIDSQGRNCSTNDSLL
T2 sequence (P08588 whole entry): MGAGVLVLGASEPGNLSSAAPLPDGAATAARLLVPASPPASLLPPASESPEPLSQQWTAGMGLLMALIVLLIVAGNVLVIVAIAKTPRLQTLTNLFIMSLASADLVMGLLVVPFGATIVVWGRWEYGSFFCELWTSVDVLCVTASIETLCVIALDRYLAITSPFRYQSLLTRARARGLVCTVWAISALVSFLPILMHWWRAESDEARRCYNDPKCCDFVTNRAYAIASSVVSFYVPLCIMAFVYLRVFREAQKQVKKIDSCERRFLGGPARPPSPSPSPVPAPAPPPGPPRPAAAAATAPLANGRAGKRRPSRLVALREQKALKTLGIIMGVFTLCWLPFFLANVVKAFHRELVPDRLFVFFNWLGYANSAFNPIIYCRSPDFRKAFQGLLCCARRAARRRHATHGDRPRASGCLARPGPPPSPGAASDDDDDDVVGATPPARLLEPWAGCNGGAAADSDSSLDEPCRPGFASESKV

| β2 Int Act (Adrenergic β2) | EC50 (Adrenergic β2) | IC50 [1] | IC50 [2] | Compound |
| --- | --- | --- | --- | --- |
| 1.05 | 20 nM | > 10000 nM | > 7940 nM | COCCn1cc(-c2cccc(CCOCCC(=O)N(CCNCCc3ccc(O)c4c3OCC(=O)N4)C3CCCCC3)c2)cn1 [Example 36, N-Cyclohexyl-N-(2-(2-(5-hydroxy-3-oxo-3,4-dihydro-2H-benzo[b][1,4]oxazin-8-yl)ethylamino)ethyl)-3-(3-(1-(2-methoxyethyl)-1H-pyrazol-4-yl)phenethoxy)propanamide Trifluoroacetic Acid Salt] |
| 0.93 | 12.6 nM | > 10000 nM | 3160 nM | Cn1ccnc1-c1cccc(CCOCCC(=O)N(CCNCCc2ccc(O)c3c2OCC(=O)N3)C2CCCCC2)c1 [Example 33, N-Cyclohexyl-N-(2-(2-(5-hydroxy-3-oxo-3,4-dihydro-2H-benzo[b][1,4]oxazin-8-yl)ethylamino)ethyl)-3-(3-(1-methyl-1H-imidazol-2-yl)phenethoxy)propanamide] |

Further lines, the compound ahead of its results:

| Compound | β2 Int Act (Adrenergic β2) | EC50 (Adrenergic β2) | IC50 [1] | IC50 [2] |
| --- | --- | --- | --- | --- |
| O=C1COc2c(CCNCCN(C(=O)CCOCCc3cccc(-c4cnco4)c3)C3CCCCC3)ccc(O)c2N1 [Example 10, N-Cyclohexyl-N-(2-(2-(5-hydroxy-3-oxo-3,4-dihydro-2H-benzo[b][1,4]oxazin-8-yl)ethylamino)ethyl)-3-(3-(oxazol-5-yl)phenethoxy)propanamide Trifluoroacetic Acid Salt] | 0.88 | 10 nM | 6310 nM | 1000 nM |
| Cn1cc(-c2cc(F)cc(CCOCCC(=O)N(CCNCCc3ccc(O)c4c3OCC(=O)N4)C3CCCCC3)c2)cn1 [Example 17, N-Cyclohexyl-3-(3-fluoro-5-(1-methyl-1H-pyrazol-4-yl)phenethoxy)-N-(2-(2-(5-hydroxy-3-oxo-3,4-dihydro-2H-benzo[b][1,4]oxazin-8-yl)ethylamino)ethyl)propanamide Trifluoroacetic Acid Salt] | 0.94 | 7.94 nM | 5010 nM | 2510 nM |
| CC(C)n1cc(-c2cccc(CCOCCC(=O)N(CCNCCc3ccc(O)c4c3OCC(=O)N4)C3CCCC3)c2)cn1 [Example 22, N-Cyclopentyl-N-(2-(2-(5-hydroxy-3-oxo-3,4-dihydro-2H-benzo[b][1,4]oxazin-8-yl)ethylamino)ethyl)-3-(3-(1-isopropyl-1H-pyrazol-4-yl)phenethoxy)propanamide Trifluoroacetic Acid Salt] | 0.90 | 7.94 nM | 5010 nM | 2510 nM |
| Cc1nc(-c2cccc(CCOCCC(=O)N(CCNCCc3ccc(O)c4c3OCC(=O)N4)C3CCCCC3)c2)no1 [Example 27, N-Cyclohexyl-N-(2-(2-(5-hydroxy-3-oxo-3,4-dihydro-2H-benzo[b][1,4]oxazin-8-yl)ethylamino)ethyl)-3-(3-(5-methyl-1,2,4-oxadiazol-3-yl)phenethoxy)propanamide Trifluoroacetic Acid Salt] | 0.91 | 15.8 nM | > 10000 nM | > 5010 nM |
| Cn1nnc(-c2cccc(CCOCCC(=O)N(CCNCCc3ccc(O)c4c3OCC(=O)N4)C3CCCCC3)c2)n1 [Example 07, N-Cyclohexyl-N-(2-(2-(5-hydroxy-3-oxo-3,4-dihydro-2H-benzo[b][1,4]oxazin-8-yl)ethylamino)ethyl)-3-(3-(2-methyl-2H-tetrazol-5-yl)phenethoxy)propanamide Trifluoroacetic Acid Salt] | 0.92 | 15.8 nM | > 10000 nM | 6310 nM |
